In PubChem BioAssay (NCI):
Where “and” joins values, the source holds several entries; their conditions need not be identical. Equal entries are not always repeated.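 Step 1: Grow cells in 96-well plates. Step 2: Expose to compound for 48 hours at 5 concentrations. Step 3: Interpolate endpoints linearly; if unreached, use highest concentration. The concentration for 50% growth inhibition is given as GI50. TGI denotes the concentration required for complete inhibition of growth.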

Key:
Assay in all cases: NCI anticancer screen, dose series, 48 h
[1] = tested on: KM20L2 colon
[2] = tested on: U251 CNS
[3] = tested on: DMS 114 small cell lung
[4] = tested on: HOP-18 NSCLC
[5] = tested on: XF 498 CNS
[6] = tested on: NCI-H522 lung
[7] = tested on: DLD-1 colon
[8] = tested on: OVCAR-4 ovarian
[9] = tested on: M19-MEL melanoma
[10] = tested on: LXFL 529 NSCLC
[11] = tested on: DMS 273 small cell lung
[12] = tested on: SNB-78 CNS
[13] = tested on: ACHN renal
[14] = tested on: SW-620 colon
[15] = tested on: HL-60(TB) leukemia

SMILES | TGI [1] [µM] | TGI [2] [µM] | TGI [3] [µM] | TGI [4] [µM] | TGI [5] [µM] | TGI [6] [µM] | TGI [7] [µM] | TGI [8] [µM] | TGI [9] [µM] | TGI [10] [µM] | TGI [11] [µM] | TGI [12] [µM] | TGI [13] [µM] | TGI [14] [µM] | TGI [15] [µM] | GI50 [13] | GI50 [15]
COC(=O)c1onc(-c2c(OC)cc(OC)cc2OC)c1C(=O)OC | > 100 | > 100 | > 100 | > 100 | > 100 | > 100 | > 100 | > 100 | > 100 | > 100 | > 100 | > 100 | > 100 | > 100 | > 100 | – | –
COc1cccc(NC(=O)CSc2nnc(-c3ccc(NC(C)=O)cc3)o2)c1 | > 100 | > 100 | > 100 | > 100 | – | > 100 | > 100 | > 100 | > 100 | > 100 | > 100 | > 100 | > 100 | > 100 | > 100 | – | –
O=C(O)c1ccc(C2COc3ccc(Cl)cc3C2)cc1 (stereo not drawn) | > 100 | > 100 | > 100 | > 100 | > 100 | > 100 | > 100 | – | > 100 | > 100 | > 100 | > 100 | > 100 | > 100 | > 100 | – | –
COC(=O)[C@@H]1[C@H](OC(C)=O)CCC2[C@@]3(C[C@@H](c4ccoc4)O[C@@H]3OC)[C@H](C)CC[C@]21C(=O)OC (stereo partly drawn) | – | > 25 | – | – | – | > 25 | – | > 25 | – | – | – | – | > 25 | > 25 | > 25 | – | –
COc1cc2c3c(c1)CCCN3CCC2 | – | > 10 | – | – | – | > 10 | – | > 10 | – | – | – | – | > 10 | > 10 | > 10 | – | –
CC(=O)c1ccc2c(c1)CC1(C2)Cc2cc3c(cc2C1=O)CCC3 (stereo not drawn) | – | > 100 | – | – | – | 83.6 | – | 48 | – | – | – | – | 58.2 | > 100 | 35.8 | – | –
O=c1[nH]cc(COCCCO)c(=O)[nH]1 | > 100 | > 100 | – | > 100 | > 100 | > 100 | > 100 | > 100 | > 100 | > 100 | > 100 | > 100 | > 100 | > 100 | > 100 | – | –
COc1cc(/C=C/c2nc(NC(=S)Nc3ccccc3)nnc2C)cc(OC)c1OC | – | > 100 | – | – | – | 28.4 | – | 76.4 | – | – | – | – | 48.1 | > 100 | 34.1 | – | –
C/C=C1\CN2CCc3c([nH]c4ccccc34)C2CC1C(=O)OC (stereo not drawn) | > 322 | > 322 | – | – | > 322 | > 322 | > 322 | – | – | > 322 | > 322 | – | > 322 | > 322 | > 32.2 | – | –
O=C(NC1CCCCC1NC(c1ccccc1)(c1ccccc1)c1ccccc1)C(=O)NC1CCCCC1NC(c1ccccc1)(c1ccccc1)c1ccccc1 (stereo not drawn) | – | 57.4 | – | – | – | > 100 | – | 76.3 | – | – | – | – | > 100 | > 100 | > 100 | – | –
CC1(C)C=Cc2c(cc(O)c3c(=O)c4cc(Cl)ccc4[nH]c23)O1 | – | > 10 | – | – | – | 6.46 | – | > 10 | – | – | – | – | > 10 | > 10 | 6.6 | – | –
C=CCC1(OCc2ccccc2)C(=O)C(=O)OC1C1COC(C)(C)O1 (stereo not drawn) | – | > 100 | – | – | – | > 100 | – | > 100 | – | – | – | – | > 100 | > 100 | > 100 | – | –
COC(=O)[C@@H]1CC(C(C[N+](=O)[O-])c2ccc(O[Si](C)(C)C(C)(C)C)cc2)C(=O)N1C(=O)OC(C)(C)C (stereo partly drawn) | – | > 100 | – | – | – | > 100 | – | > 100 | – | – | – | – | > 100 | > 100 | > 100 | 28.1 µM and > 100 µM | > 100 µM and 46.2 µM
CC(=O)C1C(=O)C(=O)N(c2cccc([N+](=O)[O-])c2)C1=O (stereo not drawn) | – | > 100 | – | – | – | > 100 | – | > 100 | – | – | – | – | > 100 | > 100 | > 100 | – | –
C=CC[C@@H](N)C(=O)N(C)[C@@H](C)[C@@H](O)c1ccccc1 | – | > 100 | – | – | – | 44.2 | – | > 100 | – | – | – | – | > 100 | > 100 | > 100 | – | –
CNC(=O)C1(N)c2ccccc2C=Cc2ccccc21 | – | > 100 | – | – | – | > 100 | – | > 100 | – | – | – | – | > 100 | > 100 | > 100 | – | –
CCOC(=O)/C(C=Nc1c(C)n(C)n(-c2ccccc2)c1=O)=C(/C)O | – | > 100 | – | – | – | > 100 | – | > 100 | – | – | – | – | > 100 | > 100 | > 100 | – | –
CCOC(=O)C1C(c2ccc3c(c2)OCO3)c2c([nH][nH]c2=O)CC1(C)O (stereo not drawn) | – | > 100 | – | – | – | > 100 | – | > 100 | – | – | – | – | > 100 | > 100 | > 100 | – | –
C/C(=N\Nc1ccc([N+](=O)[O-])cc1[N+](=O)[O-])c1sc(-n2nc(-c3ccccc3)cc2-c2ccccc2)nc1C | – | > 100 | – | – | – | > 100 | – | > 100 | – | – | – | – | > 100 | > 100 | 44.5 | – | –
CCN(CC)CC1CCCCN1CC(=O)N1c2ccccc2C(=O)Nc2cccnc21 (stereo not drawn) | – | > 100 | – | – | – | > 100 | – | > 100 | – | – | – | – | > 100 | > 100 | 35 | – | –
COC1=CC(=O)C2=C(C1=O)[C@H]1CC[C@]3(C)[C@@H](O)CC[C@H]3[C@@H]1CC2 | – | 31.3 | – | – | – | 31.8 | – | 30.9 | – | – | – | – | 31.9 | > 100 | 46.5 | – | –
COC(=O)[C@H](CCSC)NC(=O)N[C@H](C)c1ccccc1 | – | > 100 | – | – | – | 47.5 | – | > 100 | – | – | – | – | > 100 | > 100 | > 100 | – | –
COc1ccc(C(=O)/C=C/c2ccc(O)c(O)c2)c(OC)c1 | – | 16.6 | – | – | – | 0.74 | – | > 100 | – | – | – | – | > 70.3 | > 63.8 | 2.53 | – | –
CCOC(=O)c1c(C)nc2c1c(CN(C)C)c(O)c1[nH]c(C)c(C)nc12 | – | 68.7 | – | – | – | 42.7 | – | > 100 | – | – | – | – | 69.9 | 95.2 | 25.2 | – | –
